Test results reported in patent US8242280B2, “Fused ring heterocycle kinase modulators” (SGX Pharmaceuticals, Inc., priority 2007, dated 2012).

Tests used:
[1] = target: T1, unphosphorylated T315I Abl kinase domain (Mus musculus, UniProt P00520, T315I); experiment: c-Abl T315I 0P bioassay (pyruvate kinase/lactate dehydrogenase coupled enzyme assay); type: biochemical; details: zero phosphorylation state (0P), 10 μM ATP, read-out: AbI T315I 0P IC50
T1 construct: purified and unphosphorylated T315I Abl kinase domain; made in house; host or cells: E. coli BL21(DE3) (Codon+RIL or pSA0145 strain)
T1 sequence (P00520 242-493 T315I limits assumed): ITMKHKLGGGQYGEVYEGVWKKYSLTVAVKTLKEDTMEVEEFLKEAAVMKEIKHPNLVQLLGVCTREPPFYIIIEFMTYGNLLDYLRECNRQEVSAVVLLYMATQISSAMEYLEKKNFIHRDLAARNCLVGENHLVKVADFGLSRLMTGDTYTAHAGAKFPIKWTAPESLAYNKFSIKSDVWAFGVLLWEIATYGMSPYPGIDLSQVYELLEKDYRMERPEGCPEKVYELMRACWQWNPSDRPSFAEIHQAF

[2] = target: Ba/F3 cells, ABL1 T315I (Homo sapiens, UniProt P00519, T315I, cells depend on it); experiment: 96-well XTT cell survival assay, Ba/F3 ABL1 T315I; type: cell-based; details: 72 hours, read-out: ABL1 T315I XTT [Ba/F3] IC50
How it was run: (§1)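 Ba/F3 cells carrying wild-type or T315I ABL1 were seeded at 5000-8000 per well with graded compound concentrations in duplicate and grown 72 hours at 37° C. Survival was read by XTT/PMS reduction after a further 2-6 h, as absorbance at 405 nm with 650 nm background correction.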

[3] = target: Ba/F3 cells, ABL1 WT (Homo sapiens, UniProt P00519); experiment: 96-well XTT cell survival assay, Ba/F3 ABL1 WT; type: cell-based; details: 72 hours, read-out: ABL1 WT XTT [Ba/F3] IC50
How it was run: as §1

Compound | IC50 [1] [µM] | GI50 [2] [µM] | GI50 [3] [µM]
COc1ccccc1-c1c[nH]c2ncc(-c3cncc([C@@H](O)C(=O)N(C)C)c3)cc12 | < 0.05 | < 1 | < 1
COc1ccccc1-c1c[nH]c2ncc(-c3cncc([C@H](O)C(=O)N(C)C)c3)cc12 | < 0.05 | < 1 | < 1
COc1ccccc1-c1c[nH]c2ncc(-c3ccnc(C(O)C(=O)N(C)C)c3)cc12 (stereo not drawn) | < 0.05 | > 1 | > 1
COc1ccccc1-c1n[nH]c2ncc(-c3cccc(C(O)C(=O)N4CCC(O)CC4)c3)cc12 (stereo not drawn) | < 0.05 | > 1 | > 1
COc1ccccc1-c1n[nH]c2ncc(-c3cccc(C(N)C(=O)N4CC(O)C4)c3)cc12 (stereo not drawn) | < 0.05 | > 1 | > 1
COc1ccccc1-c1c[nH]c2ncc(-c3cccc(C(O)C(=O)N(C)CC4CCCO4)c3)cc12 (stereo not drawn) | < 0.05 | < 1 | < 1
CN(C)C(=O)C(O)c1cncc(-c2cnc3[nH]cc(-c4cccnc4)c3c2)c1 (stereo not drawn) | 0.05 to 0.5 | > 1 | > 1
COc1ccccc1-c1c[nH]c2ncc(-c3cncc(C(O)C(=O)N(C)Cc4ccnn4C)c3)cc12 (stereo not drawn) | < 0.05 | < 1 | < 1
COc1ccccc1-c1c[nH]c2ncc(-c3cccc(C(O)C(=O)N(C)CCN(C)C)c3)cc12 (stereo not drawn) | < 0.05 | < 1 | < 1
COc1ccccc1-c1n[nH]c2ncc(-c3cccc(C(O)C(=O)N(C)C4CCOCC4)c3)cc12 (stereo not drawn) | < 0.05 | < 1 | < 1
COc1ccccc1-c1n[nH]c2ncc(-c3cccc(C(O)c4nccn4C)c3)cc12 (stereo not drawn) | < 0.05 | > 1 | < 1
COc1ccccc1-c1n[nH]c2ncc(-c3cccc(C(O)C(=O)N(C)C)n3)cc12 (stereo not drawn) | < 0.05 | > 1 | > 1
COc1ccccc1-c1c[nH]c2ncc(-c3cncc(C(O)C4CC4)c3)cc12 (stereo not drawn) | < 0.05 | < 1 | < 1
CNC(C(=O)N(C)C(C)C)c1cccc(-c2cnc3[nH]nc(-c4ccccc4OC)c3c2)c1 (stereo not drawn) | < 0.05 | > 1 | > 1
COc1ccccc1-c1n[nH]c2ncc(-c3cccc(C(N)C(=O)N(C)C)c3)cc12 (stereo not drawn) | < 0.05 | < 1 | < 1
COc1ccccc1-c1n[nH]c2ncc(-c3cccc(C(O)C(=O)N(C)CCN(C)C)n3)cc12 (stereo not drawn) | < 0.05 | > 1 | > 1
COc1ccccc1-c1n[nH]c2ncc(-c3cccc(C(O)c4ccccn4)c3)cc12 (stereo not drawn) | < 0.05 | > 1 | < 1
COc1ccccc1-c1c[nH]c2ncc(-c3cnc(N)c(C(O)C(=O)N(C)C)c3)cc12 (stereo not drawn) | < 0.05 | < 1 | < 1
COc1ccccc1-c1c[nH]c2ncc(-c3cncc(C(=O)C(=O)N(C)C)c3)cc12 | < 0.05 | < 1 | < 1
COc1ccccc1-c1n[nH]c2ncc(-c3cccc(C(O)C(N)=O)c3)cc12 (stereo not drawn) | < 0.05 | < 1 | < 1
CN(C)C(=O)C(O)c1cncc(-c2cnc3[nH]cc(-c4ccc(CO)cc4)c3c2)c1 (stereo not drawn) | < 0.05 | > 1 | > 1
COc1ccccc1-c1c[nH]c2ncc(-c3cncc(C(O)C(=O)N(C)C)c3)cc12 (stereo not drawn) | < 0.05 | < 1 | < 1
COc1ccccc1-c1n[nH]c2ncc(-c3cccc(C(O)C(=O)N(C4CC4)C4CCN(C)CC4)c3)cc12 (stereo not drawn) | < 0.05 | < 1 | < 1

Compound | IC50 [1] [µM] | GI50 [2] [µM] | GI50 [3] [µM]
CN(C)C(=O)C(O)c1cncc(-c2cnc3[nH]cc(-c4ccc(F)cc4)c3c2)c1 (stereo not drawn) | < 0.05 | > 1 | > 1
COc1ccccc1-c1c[nH]c2ncc(-c3cncc(C(O)C(=O)N(C)Cc4ccncc4)c3)cc12 (stereo not drawn) | < 0.05 | > 1 | > 1
CSc1ccccc1-c1c[nH]c2ncc(-c3cncc(C(O)C(=O)N(C)C)c3)cc12 (stereo not drawn) | < 0.05 | < 1 | < 1
COc1ccccc1-c1n[nH]c2ncc(-c3cccc(C(O)C(=O)N4CCC(N(C)C)C4)c3)cc12 (stereo not drawn) | < 0.05 | < 1 | < 1
COc1ccccc1-c1c[nH]c2ncc(-c3cccc(C(O)CN)c3)cc12 (stereo not drawn) | < 0.05 | > 1 | > 1
CN(C)C(=O)C(O)c1cncc(-c2cnc3[nH]cc(-c4ccc(Cl)c(Cl)c4)c3c2)c1 (stereo not drawn) | < 0.05 | > 1 | > 1
CN(C)C(=O)C(O)c1cc(-c2cnc3[nH]cc(-c4ccccc4F)c3c2)cnc1N (stereo not drawn) | < 0.05 | < 1 | < 1
CC[C@@H]1OCO[C@H]1c1cccc(-c2cnc3[nH]nc(-c4ccccc4OC)c3c2)c1 | < 0.05 | > 1 | > 1
COc1ccccc1-c1n[nH]c2ncc(-c3cccc(C(C)(O)C(=O)N(C)CCN(C)C)c3)cc12 (stereo not drawn) | < 0.05 | > 1 | > 1
COc1ccccc1-c1n[nH]c2ncc(-c3cccc(C(C(=O)N(C)CCN(C)C)N(C)C)c3)cc12 (stereo not drawn) | 0.05 to 0.5 | > 1 | > 1
COc1ccccc1-c1n[nH]c2ncc(-c3cccc(C(C(=O)N4CCC(N(C)C)C4)N(C)C)c3)cc12 (stereo not drawn) | 0.05 to 0.5 | > 1 | > 1
COc1ccccc1-c1c[nH]c2ncc(-c3cccc(C(O)C(=O)N(C)CC4CCN(C)CC4)c3)cc12 (stereo not drawn) | < 0.05 | < 1 | < 1
COc1ccccc1-c1c[nH]c2ncc(-c3cccc(C(O)C(=O)N(C)C4CCOCC4)c3)cc12 (stereo not drawn) | < 0.05 | < 1 | < 1
COc1ccccc1-c1n[nH]c2ncc(-c3cccc(C(O)C(=O)N(C)CCN(C)C)c3)cc12 (stereo not drawn) | < 0.05 | < 1 | < 1
COc1ccccc1-c1c[nH]c2ncc(-c3cccc(C(O)C(=O)N(C)C[C@@H](O)CO)c3)cc12 (stereo partly drawn) | < 0.05 | < 1 | < 1
CN(C)C(=O)C(O)c1cncc(-c2cnc3[nH]cc(-c4ccnn4C)c3c2)c1 (stereo not drawn) [drawing 464] | 0.05 to 0.5 | > 1 | > 1
CC(=O)c1ccccc1-c1c[nH]c2ncc(-c3cncc(C(O)C(=O)N(C)C)c3)cc12 (stereo not drawn) | 0.05 to 0.5 | > 1 | > 1
CNC(C(=O)N1CCC(N(C)C)C1)c1cccc(-c2cnc3[nH]nc(-c4ccccc4OC)c3c2)c1 (stereo not drawn) | < 0.05 | > 1 | > 1
CN(C)C(=O)C(O)c1cncc(-c2cnc3[nH]cc(-c4ccccc4Cl)c3c2)c1 (stereo not drawn) | < 0.05 | < 1 | < 1
CN(C)C(=O)C(O)c1cncc(-c2cnc3[nH]cc(-c4cnc(N)s4)c3c2)c1 (stereo not drawn) | < 0.05 | > 1 | > 1
CN(C)C(=O)C(O)c1cncc(-c2cnc3[nH]cc(-c4cccc(N(C)C)c4)c3c2)c1 (stereo not drawn) | < 0.05 | > 1 | < 1
COc1ccccc1-c1n[nH]c2ncc(-c3cccc(C(O)c4ncco4)c3)cc12 (stereo not drawn) | < 0.05 | > 1 | < 1
